Measured values from patent US9249466B2, “Methods and compositions for treating cancer” (Agency for Science, Technology and Research, priority 2010, dated 2016).
“Also recorded” adds a separate entry of the source.

Legend:
p-Myc(T58/S62) = test: Immunoblot analysis of Myc phosphorylation; assay type: cell-based, human; conditions: for effect on rapamycin-induced Myc phosphorylation: BX912 2.5 μM or PIK90 5 μM with rapamycin 10 nM
SW480 cells = test: Morphologies of SW480 cells under treatment; assay type: cell-based, human
SW480 and DLD1 cells = test: G2/M phase arrest by PI staining and FACS in SW480 and DLD1 cells; assay type: cell-based, human; conditions: BX912 2.5 μM or PIK90 with rapamycin 10 nM, 48 h
Description: (§1) In brief, 1000 cells were seeded in 96-well plate and the cell number was measured following manufacturer's instruction. To detect the senescence in DLD1-tet on cells, cells were treated with Dox for 48 hr and SA-β-Gal staining was performed according to the protocol of Senescence Detection kit (BioVision). Cell cycle analysis was done by DNA content quantification.
(§2) The cells were fixed with 70% ethanol and stained with propidium iodide (50 μg/ml) staining. The stained cells were analyzed by FACScalibur (BD Bioscience) and quantified by using CellQuest software (BD bioscience).

p-AKT (S473) = test: Immunoblot analysis of AKT S473 phosphorylation; assay type: cell-based, human; conditions: for effect on AKT S473 phosphorylation: BX912 2.5 μM or PIK90 5 μM with rapamycin 10 nM, 48 hr
DLD1 and SW480 cells [1] = test: Cell viability of DLD1 and SW480 cells under drug combinations; assay type: cell-based, human; conditions: BX912 2.5 μM plus rapamycin 10 nM, 5-day cell viability assay
Description: (§3) Cell viability was measured using CellTiter-Glo™ Luminescent Cell Viability Assay (Promega).
as §1

DLD1 and SW480 cells [2] = test: Monolayer dense foci / colony formation of DLD1 and SW480 cells; assay type: cell-based, human; conditions: BX912 2.5 μM plus rapamycin 10 nM, 2-week colony formation assay
Description: For DLD1 and HCT116 inducible cells foci formation assay, 1×10^4 cells were seeded on 6-well plate with or without treatment with Dox or rapamcycin. […]

PPP2R2B = test: RT-PCR analysis of PPP2R2B expression; assay type: cell-based, human; conditions: DLD1 cells, 5 μM for 3 days
Description: For RT-PCR, total RNA was reverse-transcribed using oligo(dT)12-18 primer (SEQ ID NO: 6)with Superscript II reverse transcriptase (Invitrogen). 100 ng of cDNA was used for PCR. The primers PPP2R2B F: 5′ […] 3′ (SEQ ID NO: 7) and PPP2R2B R: 5′ (SEQ ID NO: 8) […] 3′ were used to amplify the PPP2R2B cDNA.

[3] = tested on: HEK-TERV cells transformed with PDK1, Myc, shPTEN or PI3K E545K; test: Cell viability / proliferation of transformed HEK-TERV cells with PLK1 inhibitors; assay type: cell-based, human
human cancers = conditions: also with intermittent dosing schedule; cited from earlier work
[4] = cited from earlier work
[5] = tested on: behavioral tasks and aggregate formation; conditions: mouse model of HD; cited from earlier work
[6] = tested on: experimental allergic encephalomyelitis; conditions: model for multiple sclerosis; cited from earlier work
[7] = bile of treated rats; cited from earlier work
DLD1-PPP2R2B cells [8] = test: Cell viability assay in DLD1-PPP2R2B cells; assay type: cell-based, human; conditions: 10 nM rapamycin, PPP2R2B re-expressed by Dox vs no Dox, 5 days
Description: as §3, §1

DLD1-PPP2R2B cells [9] = test: Cell cycle analysis by flow cytometry in DLD1-PPP2R2B cells; assay type: cell-based, human; conditions: rapamycin added to Dox-induced PPP2R2B expression, 48 h
Description: as §1, §2

Candida albicans = conditions: in vitro and in vivo; cited from earlier work
DLD1-PPP2R2B cells [10] = test: Dense foci / colony formation assay in DLD1-PPP2R2B cells; assay type: cell-based, human; conditions: 10 nM rapamycin, PPP2R2B re-expressed by Dox vs no Dox, 14 days
Description: For DLD1 and HCT116 inducible cells foci formation assay, 1×10^4 cells were seeded on 6-well plate with or without treatment with Dox or rapamcycin. Cells were grown for 2 weeks and the surviving colonies were stained with gentian violet after methanol fixation, and visible colonies (>50 cells) were counted.

DLD1-PPP2R2B cells [11] = test: Xenograft tumor growth of DLD1-PPP2R2B cells in nude mice; assay type: in vivo, BALB/c nude mice
Description: The female athymice BALB/c nude mice (5-8 week-old) were housed in the Biological Resource Centre. Mice were implanted subcutaneously in both sides of flank with 3×10^6 DLD1-PPP2R2B or control DLD1 cells, respectively.
When tumors reached ˜70 mm^3, the mice were divided two groups (6 mice per group) and the Doxycyclin was administrated by oral gavages at 100 mg/kg daily. Tumor progress was monitored with whole body weight and tumor size for every other day. For combination treatment with rapamycin and doxycycline, the same dose of doxycyclin was given at every other day and rapamycin was administered by intraperitoneal injection at 4 mg/kg at Day 3, 5, 7 and 11.
Tumor diameters were measured every 3-4 days with caliper and tumor volumes were calculated from 7-9 mice per data time point. All animal work was performed in accordance with animal experiments guidelines of Singapore.

IgE-like antibodies = conditions: in vivo; cited from earlier work
[12] = tested on: huntingtin accumulation and cell death; conditions: cell models of HD; cited from earlier work
adjuvant arthritis = conditions: model for rheumatoid arthritis; cited from earlier work
CRC cell lines = test: Cell viability (CellTiter-Glo): rapamycin-induced growth inhibition in CRC cell lines; assay type: cell-based; conditions: Homo sapiens, 120 h; 10 nM rapamycin, 5 days treatment, all examined CRC cell lines; read-out: rapamycin-induced growth inhibition compared to untreated cells
Description: as §3, §1

[13] = tested on: p70S6K and S6 phosphorylation; test: Immunoblot analysis of p70S6K and S6 phosphorylation; assay type: cell-based, human; conditions: DLD1 vector control and PPP2R2B expressing cells, 10 nM rapamycin
HCT116 and DKO cells = test: Rapamycin-induced growth inhibition in HCT116 and DKO cells; assay type: cell-based, human; conditions: DKO cells compared to parental HCT116 cells
Description: as §3, §1

neurodegeneration = conditions: fly model of HD; cited from earlier work
[14] = tested on: PPP2R2B-expressing cancer cell lines; test: Rapamycin-induced growth inhibition in PPP2R2B-expressing cancer cell lines; assay type: cell-based, human; conditions: 10 nM rapamycin, 5 days; compared to CRC cell lines
Description: as §3, §1

[15] = animal models; cited from earlier work
cytochrome P-450 3A = conditions: cited from earlier work
[16] = DLD1 cells serum starved 48 h, then 10 nM rapamycin

COc1ccc2c(c1OC)N=C(NC(=O)c1cccnc1)N1CCN=C21 [PIK90]
effect on rapamycin-induced Myc phosphorylation (p-Myc(T58/S62); DLD1 cells, 48 hr): unable to inhibit rapamycin-induced Myc phosphorylation
morphological change (SW480 cells): not
G2/M arrest in combination with rapamycin (SW480 and DLD1 cells): not
effect on AKT S473 phosphorylation (p-AKT (S473); DLD1 cells): effectively abolished the AKT S473 phosphorylation

O=C(Nc1cccc(Nc2ncc(Br)c(NCCc3cnc[nH]3)n2)c1)N1CCCC1 [BX912]
effect on rapamycin-induced Myc phosphorylation (p-Myc(T58/S62); DLD1 cells, 48 hr): abolished rapamycin-induced Myc phosphorylation
morphological change (SW480 cells): induced a morphological change similar to that seen upon PPP2R2B re-expression
G2/M arrest in combination with rapamycin (SW480 and DLD1 cells): synergized with rapamycin to induce strong G2/M arrest
loss of cell viability in combination with rapamycin (DLD1 and SW480 cells [1]): synergistic loss of cell viability
effect on AKT S473 phosphorylation (p-AKT (S473); DLD1 cells): had no much effect on AKT S473
loss of cell viability in combination with rapamycin (colony formation) (DLD1 and SW480 cells [2]): synergistic loss of cell viability

Oc1cccc(-c2nc(N3CCOCC3)c3oc4ncccc4c3n2)c1 [PIK-103]
Myc phosphorylation (p-Myc(T58/S62); DLD1 cells, 0.5 μM): enhanced Myc phosphorylation
AKT S473 phosphorylation (p-AKT (S473); DLD1 cells, 0.5 μM): reduced AKT 5473 phosphorylation

Nc1ncn([C@H]2C[C@H](O)[C@@H](CO)O2)c(=O)n1 [5-aza-dC]
PPP2R2B expression (PPP2R2B): re-expression of PPP2R2B

COc1cc2ncn(-c3cc(OCc4ccccc4C(F)(F)F)c(C(N)=O)s3)c2cc1OC [GW843682X]
selectivity of inhibition of proliferation / cell viability (dose-response) ([3]; HEK-PDK1 and HEK-Myc vs HEK-PMN and HEK-shPTEN cells, 4 days): more selectively decrease the cell viability of PDK1 or Myc-transformed cells; also recorded: more selectively inhibit the proliferation of PDK1 or Myc-transformed HEK cells
growth inhibition in kinase inhibitor screen ([3]; HEK-PDK1 cells compared to HEK-vector control cells (PMN)): selective growth inhibition effect

Cn1c(=O)n(-c2ccc(C(C)(C)C#N)cc2)c2c3cc(-c4cnc5ccccc5c4)ccc3ncc21 [BEZ235]
Myc phosphorylation (p-Myc(T58/S62); DLD1 cells, BEZ 235 100 nM, 48 hr): induced Myc phosphorylation

CO[C@H]1C[C@@H]2CC[C@@H](C)[C@@](O)(O2)C(=O)C(=O)N2CCCC[C@H]2C(=O)O[C@H]([C@H](C)C[C@@H]2CC[C@@H](OC(=O)C(C)(CO)CO)[C@H](OC)C2)CC(=O)[C@H](C)/C=C(\C)[C@@H](O)[C@@H](OC)C(=O)[C@H](C)C[C@H](C)/C=C/C=C/C=C/1C [CCI 779, rapamycin 42-[2,2-bis(hydroxymethyl)propionate]]
growth of cancers (human cancers): inhibit the growth of a diverse range of cancer types
water solubility [4]: water soluble
behavioral performance and aggregate formation [5]: improved performance on 4 different behavioral tasks and decreased aggregate formation

CO[C@H]1C[C@@H]2CC[C@@H](C)[C@@](O)(O2)C(=O)C(=O)N2CCCC[C@H]2C(=O)O[C@H]([C@H](C)C[C@@H]2CC[C@@H](O)[C@H](OC)C2)CC(=O)[C@H](C)/C=C(\C)[C@@H](O)[C@@H](OC)C(=O)[C@H](C)C[C@H](C)/C=C/C=C/C=C/1C [rapamycin, (3S,6R,7E,9R,10R,12R,14S,15E,17E,19E,21S,23S,26R,27R,34aS)-9,10,12,13,14,21,22,23,24,25,26,27,32,33,34,34a-hexadecahydro-9,27-dihydroxy-3-[(1R)-2-[(1S,3R,4R)-4-hydroxy-3-methoxycyclohexyl]-1-methylethyl]-10,21-dimethoxy-6,8,12,14,20,26-hexamethyl-23,27-epoxy-3H-pyrido[2,1-c][1,4]-oxaazacyclohentriacontine-1,5,11,28,29(4H,6H,31H)-pentone]
efficacy [6]: effective
number of hydroxylated and demethylated metabolites detected [7]: > 16
rapamycin-induced growth inhibition (cell viability assay) (DLD1-PPP2R2B cells [8]): much more effective
cell cycle G2 arrest (DLD1-PPP2R2B cells [9]): markedly augmented
antifungal activity (Candida albicans): antifungal activity
rapamycin-induced growth inhibition (colony formation assay) (DLD1-PPP2R2B cells [10]): much more effective
xenograft tumor growth, single treatment (DLD1-PPP2R2B cells [11]; rapamycin 4 mg/kg i.p. or Dox 100 mg/kg oral alone, every other day): moderately attenuated
xenograft tumor growth, combination of rapamycin and Dox (DLD1-PPP2R2B cells [11]; rapamycin 4 mg/kg plus Dox 100 mg/kg (PPP2R2B re-expression)): strong tumor growth inhibition
formation of IgE-like antibodies (IgE-like antibodies): effectively inhibited
huntingtin accumulation and cell death [12]: attenuates huntingtin accumulation and cell death
efficacy (adjuvant arthritis): effective
Myc phosphorylation (p-Myc(T58/S62); DKO (DNMTs-deficient HCT116) cells, 10 nM rapamycin): did not respond to rapamycin
rapamycin-induced Myc phosphorylation under serum starvation (p-Myc(T58/S62); [16]): no significant effect
Myc phosphorylation and protein accumulation (p-Myc(T58/S62); DLD1 cells, 10 nM rapamycin, 48 hr): strong induction of Myc phosphorylation and protein accumulation; also recorded: induces Myc phosphorylation
time at which the Myc response occurred (p-Myc(T58/S62); DLD1 cells, 10 nM rapamycin, time course): 4 h
Myc phosphorylation (p-Myc(T58/S62); HCT116 cells, 10 nM rapamycin): strongly induced
Myc phosphorylation (p-Myc(T58/S62); PPP2R2B-expressing cancer cell lines (HepG2, HepB3, 786-O, Caki2, OVCAR3, OVCAR5, SK-OV-3, U2OS)): none of these PPP2R2B-expressing cancer cell lines showed an induction of Myc phosphorylation
Myc phosphorylation (p-Myc(T58/S62); all examined CRC cell lines, rapamycin 48 hr): marked induction of Myc phosphorylation
inhibition at 0.01 µM (CRC cell lines): < 10%
p70S6K and S6 phosphorylation [13]: effectively abolished
sensitivity to rapamycin treatment (HCT116 and DKO cells): more sensitive
neurodegeneration (neurodegeneration): protects against neurodegeneration
sensitivity to rapamycin [14]: much more sensitive
AKT S473 phosphorylation (p-AKT (S473); CRC cells (DLD1), 10 nM rapamycin): induction of AKT S473 phosphorylation
rapamycin-induced AKT S473 phosphorylation under serum starvation (p-AKT (S473); [16]): abolished
AKT S473 phosphorylation (p-AKT (S473); HCT116 and DKO cells, 10 nM rapamycin): similarly induced
AKT S473 phosphorylation (p-AKT (S473); PPP2R2B-expressing cancer cell lines): consistent induction of AKT S473 phosphorylation
nephrotoxicity [15]: no nephrotoxicity has been detected
number of metabolites formed (cytochrome P-450 3A): at least six metabolites
